Source: patent publication US20260085062A1, “NOVEL COMPOUNDS AS CK2 INHIBITORS” (Cambridge Enterprise Limited, priority 2022, published 2026)

Assays:
[1] = biological target: T1, CK2α (Homo sapiens, UniProt P68400); assay: Biochemical assay for inhibitors of CK2α kinase activity (ADP-Glo); conditions: 0.2 nM CK2α, 50 μM peptide substrate, 15 μM ATP, read-out: Assay 1: CK2α Enzyme IC50
T1 construct: CK2α (residues 2-329) was produced in Escherichia coli BL21 (DE3) for kinase activity screening; His6 (N, cleaved yes); made in house; host or cells: Escherichia coli BL21 (DE3)
T1 sequence (P68400 2-329): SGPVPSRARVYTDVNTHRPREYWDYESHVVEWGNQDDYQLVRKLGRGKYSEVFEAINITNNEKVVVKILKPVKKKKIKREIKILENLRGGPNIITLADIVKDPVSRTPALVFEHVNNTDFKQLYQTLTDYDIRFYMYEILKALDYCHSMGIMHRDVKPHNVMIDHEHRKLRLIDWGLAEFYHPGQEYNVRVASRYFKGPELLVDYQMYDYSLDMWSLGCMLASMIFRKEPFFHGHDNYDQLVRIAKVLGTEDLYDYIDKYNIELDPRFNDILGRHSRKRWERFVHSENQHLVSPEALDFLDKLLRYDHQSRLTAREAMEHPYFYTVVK

[2] = biological target: T2, CLK2 (Homo sapiens, UniProt P49760); assay: Biochemical assay for inhibitors of CLK2 kinase activity (ADP-Glo); conditions: 20 nM CLK2, 50 μM peptide substrate, 100 μM ATP, read-out: Assay 2: CLK2 Enzyme IC50
T2 construct: purchased Carna Biosciences 04-127

[3] = biological target: T3, intracellular CK2α (Homo sapiens, UniProt P19784); assay: Cell-based NanoBRET assay for inhibitor binding to intracellular CK2α; conditions: HCT116 cells transiently transfected with CSNK2A2-NanoLuc fusion vector; Tracer K-5; 2 h; read-out: Assay 3: NanoBRET ™ assay for binding to intracellular CK2α
T3 construct: host or cells: HCT116 (ATCC CCL-247)
Outline: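 Apparent affinity came from BRET ratio (acceptor/donor ×1,000), with donor read at 450 nm and acceptor at 610 or 630 nm. Compounds competed off a tracer added at fixed concentration to cells carrying a NanoLuc-CK2α fusion.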

T2 sequence (P49760 whole entry): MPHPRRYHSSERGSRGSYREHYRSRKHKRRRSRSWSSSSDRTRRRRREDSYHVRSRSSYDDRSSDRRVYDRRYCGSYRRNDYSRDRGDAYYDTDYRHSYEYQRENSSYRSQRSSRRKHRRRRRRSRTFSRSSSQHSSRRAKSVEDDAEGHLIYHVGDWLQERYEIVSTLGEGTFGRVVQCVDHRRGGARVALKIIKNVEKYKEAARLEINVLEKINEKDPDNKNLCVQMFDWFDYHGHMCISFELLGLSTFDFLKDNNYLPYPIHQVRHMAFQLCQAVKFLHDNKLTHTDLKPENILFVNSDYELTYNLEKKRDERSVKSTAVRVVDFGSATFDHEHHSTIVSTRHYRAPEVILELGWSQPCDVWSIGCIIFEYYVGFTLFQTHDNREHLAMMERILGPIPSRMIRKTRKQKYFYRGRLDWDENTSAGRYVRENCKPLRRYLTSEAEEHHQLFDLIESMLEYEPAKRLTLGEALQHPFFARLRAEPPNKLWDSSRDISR
T3 sequence (P19784 whole entry, the tested form may be a part): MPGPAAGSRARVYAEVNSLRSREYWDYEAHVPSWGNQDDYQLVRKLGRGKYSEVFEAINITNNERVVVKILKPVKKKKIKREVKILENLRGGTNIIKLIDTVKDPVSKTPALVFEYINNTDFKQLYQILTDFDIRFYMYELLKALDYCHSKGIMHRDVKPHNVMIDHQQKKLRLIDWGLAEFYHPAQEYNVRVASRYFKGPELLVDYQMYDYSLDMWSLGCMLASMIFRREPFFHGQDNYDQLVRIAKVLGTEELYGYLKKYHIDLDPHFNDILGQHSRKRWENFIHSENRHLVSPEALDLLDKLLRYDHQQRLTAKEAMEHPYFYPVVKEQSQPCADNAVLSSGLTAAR

| IC50 [1] [µM] | IC50 [2] [µM] | IC50 [3] [µM] | Compound |
| --- | --- | --- | --- |
| 0.139 | > 50 | > 50 | N#CCc1cc(CNCCCCOCCOc2cc(-n3cnnc3)cc3[nH]nnc23)cc(OC(F)(F)F)c1 [Example 148, 2-(3-(((4-(2-((6-(4H-1,2,4-triazol-4-yl)-1H-benzo[d][1,2,3]triazol-4-yl)oxy)ethoxy)butyl)amino)methyl)-5-(trifluoromethoxy)phenyl)acetonitrile] |
| 0.0281 | 2.64 | 3.74 | FC(F)(F)Oc1ccc(CNCCCCOC2CN(c3cc(-c4ccnnc4)cc4[nH]ncc34)C2)cc1Cl [Example 107, N-(3-chloro-4-(trifluoromethoxy)benzyl)-4-((1-(6-(pyridazin-4-yl)-1H-indazol-4-yl)azetidin-3-yl)oxy)butan-1-amine] |
| 0.0315 | 2.04 | 3.07 | N#CCc1cc(Cl)cc(CNCCCCOC2CN(c3cc(-c4ccnnc4)cc4[nH]ncc34)C2)c1 [Example 133, 2-(3-chloro-5-(((4-((1-(6-(pyridazin-4-yl)-1H-indazol-4-yl)azetidin-3-yl)oxy)butyl)amino)methyl)phenyl)acetonitrile] |
| 0.338 | 17.7 | 39.3 | FC(F)(F)Oc1ccc(CNCCCCOC2CN(c3cc(-c4ccnnc4)cc4[nH]nnc34)C2)cc1Cl [Example 150, N-(3-chloro-4-(trifluoromethoxy)benzyl)-4-((1-(6-(pyridazin-4-yl)-1H-benzo[d][1,2,3]triazol-4-yl)azetidin-3-yl)oxy)butan-1-amine] |
| 0.013 | 0.333 | 2.87 | FC(F)(F)Oc1ccc(CNCCCCOC2CN(c3cc(-c4cnoc4)cc4[nH]ncc34)C2)cc1Cl [Example 137, N-(3-chloro-4-(trifluoromethoxy)benzyl)-4-((1-(6-(isoxazol-4-yl)-1H-indazol-4-yl)azetidin-3-yl)oxy)butan-1-amine] |
| 0.00265 | 0.133 | 12 | N#CCc1cccc(CNCCC(=O)NCCCNc2cc(-n3cnnc3)cc3[nH]ncc23)c1 [Example 47, N-(3-((6-(4H-1,2,4-triazol-4-yl)-1H-indazol-4-yl)amino)propyl)-3-((3-(cyanomethyl)benzyl)amino)propanamide] |
| 0.00741 | 5.98 | 4.64 | O=C(CCNCc1ccc(OC(F)(F)F)c(Cl)c1)NCCCNc1cc(-c2nnc[nH]2)cc2[nH]ncc12 [Example 174, N-(3-((6-(4H-1,2,4-triazol-3-yl)-1H-indazol-4-yl)amino)propyl)-3-((3-chloro-4-(trifluoromethoxy)benzyl)amino)propanamide] |
| 0.00033 | 0.407 | 5.09 | O=C(CCNCc1ccc(-c2ccccc2)c(Cl)c1)NCCCNc1cc(-c2nn[nH]n2)cc2[nH]ncc12 [Example 79, N-(3-((6-(2H-tetrazol-5-yl)-1H-indazol-4-yl)amino)propyl)-3-(((2-chloro-[1,1′-biphenyl]-4-yl)methyl)amino)propanamide] |
| 0.00019 | 0.235 | 0.0508 | O=C(CCNCc1ccc(-c2ccccc2)c(Cl)c1)NCCCNc1cc(-c2ccnnc2)cc2[nH]ncc12 [Example 6, 3-(((2-chloro-[1,1′-biphenyl]-4-yl)methyl)amino)-N-(3-((6-(pyridazin-4-yl)-1H-indazol-4-yl)amino)propyl)propanamide] |
| 0.00472 | 0.271 | 0.347 | FC(F)(F)c1ccc2[nH]c(CNCCCCOCCOc3cc(-c4cnoc4)cc4[nH]ncc34)cc2c1 [Example 144, 4-(2-((6-(isoxazol-4-yl)-1H-indazol-4-yl)oxy)ethoxy)-N-((5-(trifluoromethyl)-1H-indol-2-yl)methyl)butan-1-amine] |
| 0.0221 | 0.649 | 2.09 | Cc1cn(-c2cc(NCCCNC(=O)CCNCc3ccc(-c4ccccc4)c(Cl)c3)c3cn[nH]c3c2)cn1 [Example 29, 3-(((2-chloro-[1,1′-biphenyl]-4-yl)methyl)amino)-N-(3-((6-(4-methyl-1H-imidazol-1-yl)-1H-indazol-4-yl)amino)propyl)propanamide] |
| 0.0443 | 1.96 | 0.743 | O=C(CCNCc1ccc(-c2ccccc2)c(Cl)c1)NCCCNc1cc(-c2cncnc2)cc2[nH]ncc12 [Example 73, 3-(((2-chloro-[1,1′-biphenyl]-4-yl)methyl)amino)-N-(3-((6-(pyrimidin-5-yl)-1H-indazol-4-yl)amino)propyl)propanamide] |
| 0.0683 | 2.37 | 4.98 | O=C(CCNCc1ccc(-c2ccccc2)c(Cl)c1)NCCCNc1cc(CO)cc2[nH]ncc12 [Example 63, 3-(((2-chloro-[1,1′-biphenyl]-4-yl)methyl)amino)-N-(3-((6-(hydroxymethyl)-1H-indazol-4-yl)amino)propyl)propanamide] |
| 0.0125 | 1.23 | 5.88 | NC(=O)c1cc(NCCCNC(=O)CCNCc2ccc(-c3ccccc3)c(Cl)c2)c2cn[nH]c2c1 [Example 2, 4-((3-(3-(((2-chloro-[1,1′-biphenyl]-4-yl)methyl)amino)propanamido)propyl)amino)-1H-indazole-6-carboxamide] |
| 0.306 | 44.7 | > 50 | FC(F)(F)Oc1ccc(CNCCCCOCCOc2cc(-n3cnnc3)cc3[nH]nnc23)cc1Cl [Example 123, 4-(2-((6-(4H-1,2,4-triazol-4-yl)-1H-benzo[d][1,2,3]triazol-4-yl)oxy)ethoxy)-N-(3-chloro-4-(trifluoromethoxy)benzyl)butan-1-amine] |
| 0.00256 | 1.09 | 2.26 | O=C(CCNCc1ccc(OC(F)(F)F)c(Cl)c1)NCCCNc1cc(-n2cnnc2)cc2cn[nH]c12 [Example 83, N-(3-((5-(4H-1,2,4-triazol-4-yl)-1H-indazol-7-yl)amino)propyl)-3-((3-chloro-4-(trifluoromethoxy)benzyl)amino)propanamide] |
| 0.0271 | 1.83 | > 50 | O=C(Cc1cnc(CCNCc2ccc(OC(F)(F)F)c(Cl)c2)o1)Nc1cc(-n2cnnc2)cc2[nH]ncc12 [Example 15, N-(6-(4H-1,2,4-triazol-4-yl)-1H-indazol-4-yl)-2-(2-(2-((3-chloro-4-(trifluoromethoxy)benzyl)amino)ethyl)oxazol-5-yl)acetamide] |

| Compound | IC50 [1] [µM] | IC50 [2] [µM] | IC50 [3] [µM] |
| --- | --- | --- | --- |
| FC(F)(F)c1ccc2[nH]c(CNCCCCOCCNc3cc(-n4cnnc4)cc4[nH]ncc34)cc2c1 [Example 49, 6-(4H-1,2,4-triazol-4-yl)-N-(2-(4-(((5-(trifluoromethyl)-1H-indol-2-yl)methyl)amino)butoxy)ethyl)-1H-indazol-4-amine] | 0.00044 | 0.0905 | 0.106 |
| N#Cc1cc(NCCOCCCCNCc2cc(F)c(OC(F)(F)F)c(F)c2)c2cn[nH]c2c1 [Example 167, 4-((2-(4-((3,5-difluoro-4-(trifluoromethoxy)benzyl)amino)butoxy)ethyl)amino)-1H-indazole-6-carbonitrile] | 0.021 | 0.774 | 0.831 |
| CC(C)(C#N)c1cc(NCCOCCCCNCc2cc(CO)cc(OC(F)(F)F)c2)c2cn[nH]c2c1 [Example 206, 2-(4-((2-(4-((3-(hydroxymethyl)-5-(trifluoromethoxy)benzyl)amino)butoxy)ethyl)amino)-1H-indazol-6-yl)-2-methylpropanenitrile] | 0.0639 | 2.26 | 0.595 |
| O=C(O)c1cc(NCCOCCCCNCc2cc(F)c(OC(F)(F)F)c(F)c2)c2cn[nH]c2c1 [Example 197, 4-((2-(4-((3,5-difluoro-4-(trifluoromethoxy)benzyl)amino)butoxy)ethyl)amino)-1H-indazole-6-carboxylic acid] | > 1 | > 50 | > 3 |
| COc1cc(-c2cc(NCCOCCCCNCc3cc4cc(C(F)(F)F)ccc4[nH]3)c3cn[nH]c3c2)ccn1 [Example 87, 6-(2-methoxypyridin-4-yl)-N-(2-(4-(((5-(trifluoromethyl)-1H-indol-2-yl)methyl)amino)butoxy)ethyl)-1H-indazol-4-amine] | 0.0123 | 1.76 | 1.3 |
| Fc1cc(CNCCCCOCCNc2cc(-c3ccncc3)c(Cl)c3[nH]ncc23)cc(F)c1OC(F)(F)F [Example 166, 7-chloro-N-(2-(4-((3,5-difluoro-4-(trifluoromethoxy)benzyl)amino)butoxy)ethyl)-6-(pyridin-4-yl)-1H-indazol-4-amine] | 0.0213 | 0.783 | 2.67 |
| Fc1cc(CNCCCCOCCNc2cc(-n3cnnc3)c(Cl)c3[nH]ncc23)cc(F)c1OC(F)(F)F [Example 182, 7-chloro-N-(2-(4-((3,5-difluoro-4-(trifluoromethoxy)benzyl)amino)butoxy)ethyl)-6-(4H-1,2,4-triazol-4-yl)-1H-indazol-4-amine] | 0.0296 | 1.82 | 5.41 |
